Measurements published in patent US12251422B2, “Compositions and methods for treating neurological and other disorders” (Rush University Medical Center, priority 2018, dated 2025).

What was measured:
[1] = test system: NF-κB; test: NF-κB activation by EMSA in BV-2 microglial cells; type: cell-based
Protocol: FIG. 4(A-S). Effect of wtTIDM and mTIDM peptides on the induction of NF-κB activation and the expression of proinflammatory molecules in microglial cells. BV-2 microglial cells preincubated with 10 μM wtTIDM/mTIDM peptides for 1 h were stimulated with 1 μM fibrillar Aβ1-42 (A-C), 1 μM MPP+ (D-F), 250 ng/ml LTA (G-I), […] LPS (J-L), 1 μM flagellin (M-O), and 1 μM CpG DNA (P-R) under serum-free condition. After 1 h of stimulation, the activation of NF-κB was monitored in nuclear extracts by EMSA (A, fibrillar Aβ; D, MPP+; G, LTA; J, LPS; M, flagellin, P; CpG DNA). After 4 h of stimulation, the mRNA expression of IL-1β (B, E, H, K, N, & Q) and iNOS (C, F, I, L, O, & R) was monitored by real-time PCR (B-C, fibrillar Aβ; E-F, MPP+; H-I, LTA; K-L, LPS; N-O, flagellin; Q-R, CpG DNA) (n=2 replicates/dose in 3 independent experiments). ap<0.001 vs control; bp<0.001 vs stimuli by two-sample t-tests. FIG. 4S is a schematic representation of the relationships in microglia of Toll-Like Receptors, the stimulators tested, wTIDM, MyD88 and NF-κB.
FIG. 14 (A-D). Effect of wtTIDM and mTIDM peptides on polyIC-mediated activation of NF-κB activation and the expression of proinflammatory molecules in microglial cells. BV-2 microglial cells preincubated with 10 μM wtTIDM/mTIDM peptides for 1 h were stimulated with 50 μM polyIC. A) After 1 h of stimulation, the activation of NF-κB was monitored in nuclear extracts by EMSA. After 4 h of stimulation, the mRNA expression of IL-1β and iNOS was monitored by semi-quantitative RT-PCR (B) and real-time PCR (C, IL-1β; D, iNOS) (n=2 replicates/condition in 3 independent experiments). ap<0.001 vs control; bp<0.001 vs stimuli by two-sample t-tests.
(§1) Nuclear extracts were isolated and EMSA was carried out as described before (22, 23).

[2] = test system: A53T α-syn Tg mice; test: α-Synucleinopathy in A53T α-syn Tg mice; type: in vivo, mouse; settings: 0.1 mg/kg body wt/d intranasal, 30 d
Protocol: (§2) FIG. 28 (A-B). Intranasal wtTIDM peptide attenuates microglial inflammation in the nigra of A53T α-syn Tg mice. A53T mice (male; 9-month old; n=6 per group) were treated with TIDM peptides via intranasal route at a dose of 0.1 mg/kg body wt/d for 30 d followed by double-label immunofluorescence analysis of nigral sections for Iba-1 and inducible nitric oxide synthase (iNOS) (A). Magnified images of selected area are shown at the bottom row. The iNOS (+ve) cells were counted in two sections of each of six mice per group and presented as cells/mm2.
as §2, with “29” for “28”, “stimulates” for “attenuates”, “expression of arginase-1” for “inflammation”, “arginase-1 (ARG1)” for “inducible nitric oxide synthase (iNOS)”, “ARG-1” for “iNOS”
FIG. 30 (A-C). Intranasal wtTIDM peptide reduces α-synucleinopathy in the nigra of A53T α-syn Tg mice. A53T mice (male; 9-month old; n=6 per group) were treated with TIDM peptides via intranasal route at a dose of 0.1 mg/kg body wt/d for 30 d followed by Western blot analysis of nigral extracts for α-syn (A). Bands were scanned and presented as relative to A53T control (B, monomeric α-syn; C, oligomeric α-syn). Results are mean+SEM of six mice per group.
(§3) FIG. 31 (A-D). Intranasal wtTIDM peptide reduces α-synucleinopathy in the nigra of A53T α-syn Tg mice. A53T mice (male; 9-month old; n=6 per group) were treated with TIDM peptides via intranasal route at a dose of 0.1 mg/kg body wt/d for 30 d followed by double-label immunofluorescence analysis of nigral sections for TH and α-syn (mjfr1 Ab) (A). Magnified images of selected area are shown at the leftmost column. Total area (B), average size (C) and integrated density (D) of α-syn-positive cell bodies were calculated. Five cells from each of two nigral sections of six mice per group were analyzed.
as §3, with “FIG. 32 (A-B).” for “FIG. 31 (A-D).”, “for microglial marker Iba-1” for “for TH”, “column. Mean fluorescence intensity (MFI)” for “column. Total area (B), average size (C) and integrated density (D)”, “of (α-syn+Iba-1)-positive” for “of α-syn-positive”, “bodies was” for “bodies were”
FIG. 33 (A-E). Intranasal wtTIDM peptide improve locomotor activities of A53T α-syn Tg mice. A53T mice (male; 9-month old; n=6 per group) were treated with TIDM peptides via intranasal route at a dose of 0.1 mg/kg body wt/d for 30 d followed by monitoring locomotor activities by the Ethovision XT 13.0 Open Field Activity System (Noldus) (A, track plot; B, moving cumulative duration; C, distance; D, velocity; E, rotorod). Results are mean+SEM of six mice per group.

[3] = test system: NF-κB; test: NF-κB activation by EMSA in primary Tlr2−/− microglia; type: cell-based, mouse; settings: peptide 1 h, 1 μM fibrillar Aβ1-42 for 1 h
Protocol: FIG. 16 (A-F). […] Primary microglia isolated from WT (A) and TLR2 (−/−) (B) mice were treated with different concentrations of wtTIDM peptide for 1 h followed by stimulation with 1 μM fibrillar Aβ1-42 under serum-free condition. After 1 h of stimulation, the activation of NF-κB was monitored by EMSA. WT (C & D) and TLR2 (−/−) (E & F) microglia were treated with different concentrations of wtTIDM and mTIDM peptides for 1 h followed by stimulation with 1 μM fibrillar Aβ1-42 under serum-free condition. After 18 h of stimulation, levels of TNFα (C & E) and IL-1β (D & F) were monitored in supernatants by ELISA (n=2 replicates/condition in 3 independent experiments). ap<0.001 vs control; bp<0.001 vs stimuli by two-sample t-tests.
as §1

SMILES | effect on activation of NF-κB induced by any of the stimuli ([1]; fibrillar Aβ, MPP+, LTA, poly IC, LPS, flagellin, CpG DNA) | protective effect in A53T mice (all readouts) [2] | inhibition of LTA-mediated activation of NF-κB ([1]; 10 μM peptide 1 h, then 250 ng/ml LTA for 1 h) | suppression of NF-κB activation induced by CpG DNA ([1]; 10 μM peptide 1 h, then 1 μM CpG DNA for 1 h) | suppression of NF-κB activation induced by MPP+ ([1]; 10 μM peptide 1 h, then 1 μM MPP+ for 1 h) | inhibition of fibrillar Aβ-mediated activation of NF-κB ([1]; 10 μM peptide 1 h, then 1 μM fibrillar Aβ1-42 for 1 h) | suppression of NF-κB activation induced by flagellin ([1]; 10 μM peptide 1 h, then 1 μM flagellin for 1 h) | suppression of NF-κB activation induced by poly IC ([1]; 10 μM peptide 1 h, then 50 μM polyIC for 1 h) | suppression of NF-κB activation induced by LPS ([1]; 10 μM peptide 1 h, then 1 mg/ml LPS for 1 h) | inhibition of fibrillar Aβ1-42-induced activation of NF-κB in Tlr2−/− microglia [3] | arginase-1 in the nigra [2] | locomotor activities of A53T mice [2] | microglial expression of iNOS in the nigra [2] | microglial α-syn in the nigra [2] | oligomeric and monomeric α-syn [2] | α-syn inclusion bodies within tyrosine hydroxylase-positive dopaminergic neurons [2]
CC[C@H](C)[C@H](NC(=O)[C@H](CCCCN)NC(=O)[C@@H](NC(=O)[C@H](CCC(N)=O)NC(=O)[C@H](CCCNC(=N)N)NC(=O)[C@@H](N)CC(=O)O)[C@@H](C)CC)C(=O)N[C@@H](Cc1c[nH]c2ccccc12)C(=O)N[C@@H](Cc1ccccc1)C(=O)N[C@@H](CCC(N)=O)C(=O)N[C@@H](CC(N)=O)C(=O)N[C@@H](CCCNC(=N)N)C(=O)N[C@@H](CCCNC(=N)N)C(=O)N[C@@H](CCSC)C(=O)N[C@@H](CCCCN)C(=O)N[C@@H](Cc1c[nH]c2ccccc12)C(=O)N[C@@H](CCCCN)C(=O)N[C@@H](CCCCN)C(=O)N1CCC[C@H]1C(=O)NCC(=O)N[C@@H](Cc1c[nH]c2ccccc12)C(=O)N[C@@H](Cc1c[nH]cn1)C(=O)N[C@@H](CCC(N)=O)C(=O)N[C@@H](CC(=O)O)C(=O)O [mTIDM, drqikiwfqnrrmkwkkPGWHQD] | had no effect | did not exhibit any such protective effect |  |  |  |  |  |  |  |  |  |  |  |  |  | 
CC[C@H](C)[C@H](NC(=O)[C@H](CCCCN)NC(=O)[C@@H](NC(=O)[C@H](CCC(N)=O)NC(=O)[C@H](CCCNC(=N)N)NC(=O)[C@@H](N)CC(=O)O)[C@@H](C)CC)C(=O)N[C@@H](Cc1c[nH]c2ccccc12)C(=O)N[C@@H](Cc1ccccc1)C(=O)N[C@@H](CCC(N)=O)C(=O)N[C@@H](CC(N)=O)C(=O)N[C@@H](CCCNC(=N)N)C(=O)N[C@@H](CCCNC(=N)N)C(=O)N[C@@H](CCSC)C(=O)N[C@@H](CCCCN)C(=O)N[C@@H](Cc1c[nH]c2ccccc12)C(=O)N[C@@H](CCCCN)C(=O)N[C@@H](CCCCN)C(=O)N1CCC[C@H]1C(=O)NCC(=O)N[C@@H](C)C(=O)N[C@@H](Cc1c[nH]cn1)C(=O)N[C@@H](CCC(N)=O)C(=O)N[C@@H](CCCCN)C(=O)O [wtTIDM, drqikiwfqnrrmkwkkPGAHQK] |  |  | inhibited | remained unable to suppress | remained unable to suppress | inhibited | remained unable to suppress | remained unable to suppress | remained unable to suppress | remained unable to inhibit | increase | improved | reduced | decrease | reduction | suppression
